Experimental data as given in ChEMBL document CHEMBL5107967, “Targeting EZH2 for cancer therapy: From current progress to novel strategies” (Eur J Med Chem, 2022).
≈ marks a conversion by molar mass, not a printed value. Blank lines part the entries; values can stand above or below the compound they belong to.

Experiments:
[1] = target: T1, Histone-lysine N-methyltransferase EZH2 (Homo sapiens, UniProt Q15910); test: Inhibition of wild-type EZH2 in PRC2 complex (unknown origin) using monomethylated H3K27 as substrate by radiometric assay
T1 sequence (Q15910 whole entry): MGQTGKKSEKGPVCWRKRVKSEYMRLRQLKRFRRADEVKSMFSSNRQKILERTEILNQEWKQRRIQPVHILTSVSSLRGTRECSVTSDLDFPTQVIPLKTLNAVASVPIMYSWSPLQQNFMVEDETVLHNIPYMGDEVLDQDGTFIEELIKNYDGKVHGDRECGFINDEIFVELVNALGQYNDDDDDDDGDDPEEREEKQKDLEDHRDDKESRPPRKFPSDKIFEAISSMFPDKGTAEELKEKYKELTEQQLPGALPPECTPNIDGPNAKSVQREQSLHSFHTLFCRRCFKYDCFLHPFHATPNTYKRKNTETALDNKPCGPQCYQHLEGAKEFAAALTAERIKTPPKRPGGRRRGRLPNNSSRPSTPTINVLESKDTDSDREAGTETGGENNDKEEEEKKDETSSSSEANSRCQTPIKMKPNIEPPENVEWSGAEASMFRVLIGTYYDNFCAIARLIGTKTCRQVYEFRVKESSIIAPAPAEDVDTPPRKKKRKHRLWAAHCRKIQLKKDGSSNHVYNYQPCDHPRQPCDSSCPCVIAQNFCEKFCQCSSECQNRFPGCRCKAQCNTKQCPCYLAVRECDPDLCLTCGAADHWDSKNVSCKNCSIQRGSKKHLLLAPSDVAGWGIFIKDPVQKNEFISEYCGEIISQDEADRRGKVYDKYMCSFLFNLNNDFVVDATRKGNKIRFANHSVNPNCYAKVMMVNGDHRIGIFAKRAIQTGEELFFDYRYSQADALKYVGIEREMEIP

PC-3 = test: Antiproliferative activity against human PC-3 cells assessed as inhibition of cell proliferation incubated for 3 to 7 days followed by replacement of medium containing compound every 3 days by CCK8 assay; assay type: functional, cell-based
SK-OV-3 = test: Antiproliferative activity against human SK-OV-3 cells assessed as inhibition of cell proliferation incubated for 3 to 7 days followed by replacement of medium containing compound every 3 days by CCK8 assay; assay type: functional, cell-based
[2] = Solubility of the compound in water; assay type: physicochemical
[3] = Inhibition of N-terminal 6xHis SUMO-tagged human EED expressed in Escherichia coli BL21 (DE3)/FITC-labeled EZH2 (39 to 63 residues)(unknown origin) interaction incubated for 2 hrs by fluorescence polarization based competitive assay
[4] = Binding affinity to PRC2 (unknown origin) assessed as inhibition constant; design: species or system Homo sapiens
K562 = test: Antiproliferative activity against human K562 cells assessed as inhibition of cell proliferation incubated for 48 hrs by MTT assay; assay type: functional, cell-based; conditions: K562, 48 h
Homo sapiens = organism: Homo sapiens; test: Selectivity ratio of IC50 for EZH1 (unknown origin) to IC50 for EZH2 (unknown origin)
[5] = target: T1, Histone-lysine N-methyltransferase EZH2; test: Displacement of [3H-SAM] from EZH2 in PRC2 complex (unknown origin) incubated for 1 hr by […] assay

SMILES: COc1cc(C)[nH]c(=O)c1CNC(=O)c1cccc2c1cc(C)n2[C@H](C)C1CCOCC1
IC50 [1]: 0.0005 µM

SMILES: Cc1sc(NC(=O)CCCCC(=O)Nc2sc(C)c(C)c2C(N)=O)c(C(N)=O)c1C
IC50 [3]: 54.9 µM

SMILES: CC1=C(CC(=O)NCCc2c[nH]c3ccccc23)C(=O)OC2C(O)=C(O)C=CC12 (stereo unspecified)
IC50 (PC-3): 5.39 µM
IC50 (SK-OV-3): 7.86 µM

SMILES: CCN(c1cc(-c2ccc(CN3CCOCC3)cc2)cc(C(=O)NCc2c(C)cc(C)[nH]c2=O)c1C)C1CCOCC1 [TAZEMETOSTAT]
IC50 (K562): 59.2 µM
solubility ([2]; buffer): 185.3 µg/mL (≈ 324 µM)

SMILES: Cc1cc(C)c(CNC(=O)c2cc(C)n(-c3cccc(N4CCCCC4)c3)c2C)c(=O)[nH]1
Ratio IC50 (Homo sapiens): 10
IC50 [5]: 1.06 µM

More lines, now with the values ahead:

IC50 (PC-3): 10 µM
IC50 (SK-OV-3): 10.5 µM
SMILES: CC[C@H](C)n1cc(C)c2c(C(=O)NCc3c(C)cc(C)[nH]c3=O)cc(-c3ccc(N4CCNCC4)nc3)cc21 [GSK2816126]

solubility ([2]; water, read-out: solubility): 3 µg/mL (≈ 4.79 µM)
SMILES: CCN(c1cc(-c2ccc(CN3CCN(C)CC3)cc2)cc(C(=O)NCc2c3c(c(C)[nH]c2=O)CCCC3)c1C)C1CCOCC1

IC50 [3]: 63.9 µM
SMILES: Cc1ccc(C(C2=C(O)CC(C)(C)CC2=O)C2C(=O)CC(C)(C)CC2=O)s1 (stereo unspecified)

Ki [4]: 0.024 µM
SMILES: Cc1cc(C)c(CNC(=O)c2cc(-c3ccc(CN4CCOCC4)cc3)cc3c2cnn3C2CCCC2)c(=O)[nH]1

IC50 (K562): 58.7 µM
SMILES: Cc1cc(C)c(CNC(=O)c2c(C)cn(Cc3ccc(C(C(F)(F)F)(C(F)(F)F)C(F)(F)F)cc3)c2C)c(=O)[nH]1

Ratio IC50 (Homo sapiens): 10
IC50 [5]: 4.06 µM
SMILES: Cc1cc(C)c(CNC(=O)c2cc(C)n(-c3cccc(N4CCOCC4)c3)c2C)c(=O)[nH]1
